Type in all cases: cell-based
In test [1] the test system is KG-1 (human acute myeloid leukaemia). Kind of test: In vitro cytotoxicity, MTT assay, KG-1. The note with it: Homo sapiens; 72 h with compound, MTT; n/a = non-active compound. Background: Formazan colour is commonly taken as a measure of viable cells.
Test [2] deals with A2780 (human ovarian cancer). Kind of test: In vitro cytotoxicity, SRB assay, A2780. Conditions: Homo sapiens, A2780; 72 h with compound, SRB; n/a = non-active compound; read-out: A2780 IC50. A general note: The SRB assay estimates cell density from bound dye.
Test [3] has as its system A2780Cis (cisplatin-resistant human ovarian cancer). The test is described as follows: In vitro cytotoxicity, SRB assay, A2780Cis. Conditions: for IC50: Homo sapiens, A2780cis, read-out: IC50 (nM) A2780Cis.
Test [4] has as its system BALB/3T3 (normal mouse fibroblasts). The test is described as follows: In vitro cytotoxicity, SRB assay, normal BALB/3T3 fibroblasts. The note with it: Table 5; BALB/3T3 normal mouse fibroblasts; read-out: IC50 (nM) BALB3T3 normal cells.
The subject of test [5] is MV-4-11 (human biphenotypic leukaemia). Kind of test: In vitro cytotoxicity, MTT assay, MV-4-11. Conditions: for IC50: Homo sapiens, MV4-11, read-out: IC50 (nM) MV4-11.

Where a name gives a salt, the structure may show the parent alone.

By IC50 is commonly meant the concentration that gives 50% inhibition.

Turning to `CCOC(=O)C(=O)N[C@@H]1C=C[C@]2(O[C@H]([C@@H](CC)C(=O)[C@@H](C)[C@@H](O)[C@H](C)[C@@H]3O[C@@H]([C@@H](CC)C(=O)O)CC[C@@H]3C)[C@@H](C)C[C@H]2C)O[C@@]12CC[C@@](C)([C@H]1CC[C@](O)(CC)[C@H](C)O1)O2` [FLC-00373-1, C20-aminosalinomycin oxalate derivative], the half-inhibitory concentration (IC50) in test [1] is 9060 nM; in test [2], 6690 nM.
As for `CC[C@@H](C(=O)[C@@H](C)[C@@H](O)[C@H](C)[C@@H]1O[C@@H]([C@@H](CC)C(=O)O)CC[C@@H]1C)[C@H]1O[C@]2(C=C[C@@H](NC(=O)NCCc3cccnc3)[C@]3(CC[C@@](C)([C@H]4CC[C@](O)(CC)[C@H](C)O4)O3)O2)[C@H](C)C[C@@H]1C` [FLC-00567-1•Na], in test [3], the “SI A2780Cis” value turned out to be 54.2 and the concentration for half-maximal inhibition (IC50) is 15.7 nM. Further, in test [4], the half-maximal inhibitory concentration (IC50) was 848 nM. In test [5], the “SI MV4-11” value stood at 25.0 and the 50% inhibitory concentration (IC50) was found to be 34 nM.
As to `CC[C@@H](C(=O)[C@@H](C)[C@@H](O)[C@H](C)[C@@H]1O[C@@H]([C@@H](CC)C(=O)O)CC[C@@H]1C)[C@H]1O[C@]2(C=C[C@@H](NC(=O)OCCN3CCOCC3)[C@]3(CC[C@@](C)([C@H]4CC[C@](O)(CC)[C@H](C)O4)O3)O2)[C@H](C)C[C@@H]1C` [FLC-00570-1•Na], in test [3], the “SI A2780Cis” value was found to be 21.2 and the IC50 is 30 nM. In addition, in test [4], the half-inhibitory concentration (IC50) was 636 nM. In test [5], the “SI MV4-11” value is reported as 14.6 and the 50% inhibitory concentration (IC50) stood at 43.7 nM.
On to `CC[C@@H](C(=O)[C@@H](C)[C@@H](O)[C@H](C)[C@@H]1O[C@@H]([C@@H](CC)C(=O)O)CC[C@@H]1C)[C@H]1O[C@]2(C=C[C@@H](NC(=O)OCCC(C)(C)O)[C@]3(CC[C@@](C)([C@H]4CC[C@](O)(CC)[C@H](C)O4)O3)O2)[C@H](C)C[C@@H]1C` [FLC-00577-1•Na], for which the “SI A2780Cis” value in test [3] turned out to be 30.0. Further, the figures for the half-maximal inhibitory concentration (IC50) in test [3], in test [4] and in test [5] were 29.1 nM, 874 nM and 42.8 nM, respectively. Further, the “SI MV4-11” value in test [5] came to 20.4.
The matching figures for `CC[C@@H](C(=O)[C@@H](C)[C@@H](O)[C@H](C)[C@@H]1O[C@@H]([C@@H](CC)C(=O)O)CC[C@@H]1C)[C@H]1O[C@]2(C=C[C@@H](NC(=O)c3ccccc3C(F)(F)F)[C@]3(CC[C@@](C)([C@H]4CC[C@](O)(CC)[C@H](C)O4)O3)O2)[C@H](C)C[C@@H]1C` [FLC-00578-1•Na]: 184.9, 1.94 nM, 358 nM, 5.99 nM and 59.8.
The like results for `CC[C@@H](C(=O)[C@@H](C)[C@@H](O)[C@H](C)[C@@H]1O[C@@H]([C@@H](CC)C(=O)O)CC[C@@H]1C)[C@H]1O[C@]2(C=C[C@@H](NC(=O)c3cccc(C(F)(F)F)c3)[C@]3(CC[C@@](C)([C@H]4CC[C@](O)(CC)[C@H](C)O4)O3)O2)[C@H](C)C[C@@H]1C` [FLC-00579-1•Na] were, in that order, 22.3, 71.4 nM, 1590 nM, 188 nM and 8.5.
The matching figures for `CC[C@@H](C(=O)[C@@H](C)[C@@H](O)[C@H](C)[C@@H]1O[C@@H]([C@@H](CC)C(=O)O)CC[C@@H]1C)[C@H]1O[C@]2(C=C[C@@H](NC(=O)OC3CCOCC3)[C@]3(CC[C@@](C)([C@H]4CC[C@](O)(CC)[C@H](C)O4)O3)O2)[C@H](C)C[C@@H]1C` [FLC-00580-1•Na]: 94.4, 2.24 nM, 211 nM, 6.51 nM and 32.5.

For the origin of these results see US20240294541A1, “COMPOUNDS CONSTITUTING C20-MODIFIED SALINOMYCIN DERIVATIVES, A METHOD FOR OBTAINING THE SAME, A COMPOSITION CONTAINING THE SAME AND A USE OF SAID COMPOUNDS” (FILECLO SPOLKA Z OGRANICZONA ODPOWIEDZIALNOSCIA, priority 2021, published 2024).
